Molecular target: T1, SoIPMDH (3-isopropylmalate dehydrogenase from Shewanella oneidensis MR-1) (Shewanella oneidensis, UniProt Q8E9N3)
T1 construct: gene leuB; N-terminally His6-tagged (pQE-80L, BamHI/HindIII), expressed in E. coli BL21-CodonPlus(DE3)-RIL; tag removal not mentioned; homodimer
Experiment: X-ray crystallography of the complex
Format: binding
Conditions: active site, closed dimer; calcium in active site; 10 mM IPM, 10 mM MgCl2, 200 mM calcium acetate, pH 7.0, room temperature, 0.1 MPa (also 160-650 MPa: 3vl2, 3vl3, 3vl4, 3vl6, 3vl7)

T1 sequence (Q8E9N3 2-364): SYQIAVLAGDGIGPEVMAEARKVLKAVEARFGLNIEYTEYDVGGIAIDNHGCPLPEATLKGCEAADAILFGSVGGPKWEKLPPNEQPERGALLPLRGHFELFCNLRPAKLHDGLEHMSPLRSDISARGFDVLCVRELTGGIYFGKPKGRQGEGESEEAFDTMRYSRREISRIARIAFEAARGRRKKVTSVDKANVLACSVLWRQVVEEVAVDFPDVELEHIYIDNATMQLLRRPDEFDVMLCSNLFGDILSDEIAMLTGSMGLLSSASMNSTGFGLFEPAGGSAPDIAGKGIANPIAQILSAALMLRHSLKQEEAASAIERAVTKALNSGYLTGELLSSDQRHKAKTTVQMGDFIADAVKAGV

CC(C)[C@H](C(=O)O)[C@@H](O)C(=O)O [3-isopropylmalate]
X-ray crystallography of the complex: the SoIPMDH dimer was crystallized in complex with its substrate, the IPM molecule
